This passage reports EC50 and Ratio EC50 results from ChEMBL document CHEMBL4699602, “Stapled and Xenopus Glucagon-Like Peptide 1 (GLP-1)-Based Dual GLP-1/Gastrin Receptor Agonists with Improved Metabolic Benefits in Rodent Models of Obesity and Diabetes” (J Med Chem, 2020).

Where a SMILES comes first, the peptide text is derived from it.

For experiment [1], the target named is T1, Glucagon-like peptide 1 receptor (Homo sapiens, UniProt P43220). Kind of experiment: Agonist activity at human GLP-1R expressed in HEK293 cells assessed as stimulation of cAMP accumulation incubated for 20 mins in presence of 0% HSA. Type of experiment: functional, cell-based.
Experiment [2] concerns the target T1, Glucagon-like peptide 1 receptor. Kind of experiment: Ratio of EC50 for agonist activity at human GLP-1R expressed in HEK293 cells in presence of 4.4% HSA to EC50 for agonist activity at human GLP-1R expressed in HEK293 cells in presence of 0% HSA. Type of experiment: cell-based.
Experiment [3] shares this target. Kind of experiment: Agonist activity at human GLP-1R expressed in HEK293 cells assessed as stimulation of cAMP accumulation incubated for 20 mins in presence of 4.4% HSA. It counts as functional, cell-based.

T1 sequence (P43220 whole entry): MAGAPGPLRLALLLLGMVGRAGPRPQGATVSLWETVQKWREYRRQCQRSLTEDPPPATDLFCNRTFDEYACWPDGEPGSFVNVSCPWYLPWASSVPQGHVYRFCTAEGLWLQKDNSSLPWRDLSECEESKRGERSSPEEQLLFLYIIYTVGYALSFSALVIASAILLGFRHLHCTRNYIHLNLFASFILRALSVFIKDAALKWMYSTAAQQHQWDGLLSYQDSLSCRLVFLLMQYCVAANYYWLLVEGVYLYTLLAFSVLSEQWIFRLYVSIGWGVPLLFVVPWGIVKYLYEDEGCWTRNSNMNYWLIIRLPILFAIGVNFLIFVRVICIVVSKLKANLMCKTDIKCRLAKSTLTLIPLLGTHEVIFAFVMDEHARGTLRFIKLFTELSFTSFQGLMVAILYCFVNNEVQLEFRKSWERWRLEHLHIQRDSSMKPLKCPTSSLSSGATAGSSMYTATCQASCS

`CC[C@H](C)[C@H](NC(=O)[C@H](CC(C)C)NC(=O)[C@H](Cc1c[nH]c2ccccc12)NC(=O)[C@H](CCC(=O)O)NC(=O)[C@@H](NC(=O)[C@H](Cc1ccccc1)NC(=O)[C@@H]1CSC2CC(=O)N(CCC(=O)NC(C(=O)NCCCCCCNC(=O)COCCOCCNC(=O)COCCOCCNC(=O)CCC(NC(=O)CCCCCCCCCCCCCCCCC(=O)O)C(=O)O)CCCCNC(=O)CCN3C(=O)CC(SC[C@H](NC(=O)[C@H](Cc4ccc(O)cc4)NC(=O)[C@H](CCC(=O)O)NC(=O)[C@@H](NC(=O)[C@@H](NC(=O)[C@H](CC(=O)O)NC(=O)[C@H](CC(N)=O)NC(=O)[C@@H](NC(=O)[C@H](Cc4ccc(O)cc4)NC(=O)[C@@H](NC(=O)CNC(=O)[C@H](CCC(=O)O)NC(=O)C(C)(C)NC(=O)[C@@H](N)Cc4c[nH]cn4)[C@@H](C)O)[C@@H](C)O)C(C)C)[C@@H](C)O)C(=O)N[C@@H](CCC(=O)O)C(=O)N[C@@H](CCC(=O)O)C(=O)N[C@@H](CCC(=O)O)C(=O)N[C@@H](C)C(=O)N[C@@H](C)C(=O)N[C@@H](CCCCN)C(=O)N1)C3=O)C2=O)[C@@H](C)CC)C(=O)N[C@@H](CCCCN)C(=O)NCC(=O)N[C@@H](CCCCN)C(N)=O` (some centres not stated) (HELM PEPTIDE1{H.[Aib].E.G.T.Y.T.N.D.V.T.E.Y.C.E.E.E.A.A.K.C.F.I.E.W.L.I.K.G.K.[am]}|CHEM1{[O=C(O)CCCCCCCCCCCCCCCCC(=O)NC(CCC(=O)NCCOCCOCC(=O)NCCOCCOCC(=O)NCCCCCCNC(=O)C(CCCCNC(=O)CCN1C(=O)CC([*:1])C1=O)NC(=O)CCN1C(=O)CC([*:2])C1=O)C(=O)O]}$PEPTIDE1,CHEM1,14:R3-1:R1|PEPTIDE1,CHEM1,21:R3-1:R2$$$V2.0): the EC50 in experiment [1] amounted to 0.16 nM; in experiment [3] it was 14.5 nM. Further, the Ratio EC50 in experiment [2] is 90.6.
Take `CC[C@H](C)[C@H](NC(=O)[C@H](CC(C)C)NC(=O)[C@H](Cc1c[nH]c2ccccc12)NC(=O)[C@H](CCC(=O)O)NC(=O)[C@@H](NC(=O)[C@H](Cc1ccccc1)NC(=O)[C@@H]1CSC2CC(=O)N(CCC(=O)NC(C(=O)NCCCCCCNC(=O)COCCOCCNC(=O)CCCCCCCCCCCCCCCCC(=O)O)CCCCNC(=O)CCN3C(=O)CC(SC[C@H](NC(=O)[C@H](Cc4ccc(O)cc4)NC(=O)[C@H](CCC(=O)O)NC(=O)[C@@H](NC(=O)[C@@H](NC(=O)[C@H](CC(=O)O)NC(=O)[C@H](CC(N)=O)NC(=O)[C@@H](NC(=O)[C@H](Cc4ccc(O)cc4)NC(=O)[C@@H](NC(=O)CNC(=O)[C@H](CCC(=O)O)NC(=O)C(C)(C)NC(=O)[C@@H](N)Cc4c[nH]cn4)[C@@H](C)O)[C@@H](C)O)C(C)C)[C@@H](C)O)C(=O)N[C@@H](CCC(=O)O)C(=O)N[C@@H](CCC(=O)O)C(=O)N[C@@H](CCC(=O)O)C(=O)N[C@@H](C)C(=O)N[C@@H](C)C(=O)N[C@@H](CCCCN)C(=O)N1)C3=O)C2=O)[C@@H](C)CC)C(=O)N[C@@H](CCCCN)C(=O)NCC(=O)N[C@@H](CCCCN)C(N)=O` (some centres not stated) (HELM PEPTIDE1{H.[Aib].E.G.T.Y.T.N.D.V.T.E.Y.C.E.E.E.A.A.K.C.F.I.E.W.L.I.K.G.K.[am]}|CHEM1{[O=C(O)CCCCCCCCCCCCCCCCC(=O)NCCOCCOCC(=O)NCCCCCCNC(=O)C(CCCCNC(=O)CCN1C(=O)CC([*:1])C1=O)NC(=O)CCN1C(=O)CC([*:2])C1=O]}$PEPTIDE1,CHEM1,14:R3-1:R1|PEPTIDE1,CHEM1,21:R3-1:R2$$$V2.0): the EC50 in experiment [1] is 0.13 nM; in experiment [3], 1.4 nM. For the same molecule, in experiment [2], the Ratio EC50 came to 10.8.
For `CC[C@H](C)[C@@H]1NC(=O)[C@H](CC(C)C)NC(=O)[C@H](Cc2c[nH]c3ccccc23)NC(=O)[C@H](CCC(=O)O)NC(=O)[C@H]([C@@H](C)CC)NC(=O)[C@H](Cc2ccccc2)NC(=O)[C@@H](NC(=O)[C@H](CCCCN)NC(=O)[C@H](C)NC(=O)[C@H](C)NC(=O)[C@H](CCC(=O)O)NC(=O)[C@H](CCC(=O)O)NC(=O)[C@H](CCC(=O)O)NC(=O)[C@H](CC(C)C)NC(=O)[C@H](Cc2ccc(O)cc2)NC(=O)[C@H](CCC(=O)O)NC(=O)[C@@H](NC(=O)[C@@H](NC(=O)[C@H](CC(=O)O)NC(=O)[C@H](CC(N)=O)NC(=O)[C@@H](NC(=O)[C@H](Cc2ccc(O)cc2)NC(=O)[C@@H](NC(=O)CNC(=O)[C@H](CCC(=O)O)NC(=O)C(C)(C)NC(=O)[C@@H](N)Cc2c[nH]cn2)[C@@H](C)O)[C@@H](C)O)C(C)C)[C@@H](C)O)CSC2CC(=O)N(CCC(=O)NCCCCC(C(=O)NCCCCCCNC(=O)COCCOCCNC(=O)CCC(NC(=O)CCCCCCCCCCCCCCCCC(=O)O)C(=O)O)NC(=O)CCN3C(=O)CC(SC[C@@H](C(=O)NCC(=O)N[C@@H](CCCCN)C(=O)N4CCC[C@H]4C(=O)N[C@@H](CO)C(=O)N[C@@H](CO)C(=O)NCC(=O)N[C@@H](C)C(=O)N4CCC[C@H]4C(=O)N4CCC[C@H]4C(=O)N4CCC[C@H]4C(=O)N[C@@H](CO)C(N)=O)NC1=O)C3=O)C2=O` (some centres not stated) (HELM PEPTIDE1{H.[Aib].E.G.T.Y.T.N.D.V.T.E.Y.L.E.E.E.A.A.K.C.F.I.E.W.L.I.C.G.K.P.S.S.G.A.P.P.P.S.[am]}|CHEM1{[O=C(O)CCCCCCCCCCCCCCCCC(=O)NC(CCC(=O)NCCOCCOCC(=O)NCCCCCCNC(=O)C(CCCCNC(=O)CCN1C(=O)CC([*:1])C1=O)NC(=O)CCN1C(=O)CC([*:2])C1=O)C(=O)O]}$PEPTIDE1,CHEM1,21:R3-1:R1|PEPTIDE1,CHEM1,28:R3-1:R2$$$V2.0), in that order: 0.14 nM, 8.6 nM and 61.4.
For `CC[C@H](C)[C@@H]1NC(=O)[C@H](CC(C)C)NC(=O)[C@H](Cc2c[nH]c3ccccc23)NC(=O)[C@H](CCC(=O)O)NC(=O)[C@H]([C@@H](C)CC)NC(=O)[C@H](Cc2ccccc2)NC(=O)[C@@H](NC(=O)[C@H](CCCCN)NC(=O)[C@H](C)NC(=O)[C@H](C)NC(=O)[C@H](CCC(=O)O)NC(=O)[C@H](CCC(=O)O)NC(=O)[C@H](CCC(=O)O)NC(=O)[C@H](CC(C)C)NC(=O)[C@H](Cc2ccc(O)cc2)NC(=O)[C@H](CCC(=O)O)NC(=O)[C@@H](NC(=O)[C@@H](NC(=O)[C@H](CC(=O)O)NC(=O)[C@H](CC(N)=O)NC(=O)[C@@H](NC(=O)[C@H](Cc2ccc(O)cc2)NC(=O)[C@@H](NC(=O)CNC(=O)[C@H](CCC(=O)O)NC(=O)C(C)(C)NC(=O)[C@@H](N)Cc2c[nH]cn2)[C@@H](C)O)[C@@H](C)O)C(C)C)[C@@H](C)O)CSC2CC(=O)N(CCC(=O)NCCCCC(C(=O)NCCCCCCNC(=O)COCCOCCNC(=O)COCCOCCNC(=O)CCC(NC(=O)CCCCCCCCCCCCCCCCC(=O)O)C(=O)O)NC(=O)CCN3C(=O)CC(SC[C@@H](C(=O)NCC(=O)N[C@@H](CCCCN)C(=O)N4CCC[C@H]4C(=O)N[C@@H](CO)C(=O)N[C@@H](CO)C(=O)NCC(=O)N[C@@H](C)C(=O)N4CCC[C@H]4C(=O)N4CCC[C@H]4C(=O)N4CCC[C@H]4C(=O)N[C@@H](CO)C(N)=O)NC1=O)C3=O)C2=O` (some centres not stated) (HELM PEPTIDE1{H.[Aib].E.G.T.Y.T.N.D.V.T.E.Y.L.E.E.E.A.A.K.C.F.I.E.W.L.I.C.G.K.P.S.S.G.A.P.P.P.S.[am]}|CHEM1{[O=C(O)CCCCCCCCCCCCCCCCC(=O)NC(CCC(=O)NCCOCCOCC(=O)NCCOCCOCC(=O)NCCCCCCNC(=O)C(CCCCNC(=O)CCN1C(=O)CC([*:1])C1=O)NC(=O)CCN1C(=O)CC([*:2])C1=O)C(=O)O]}$PEPTIDE1,CHEM1,21:R3-1:R1|PEPTIDE1,CHEM1,28:R3-1:R2$$$V2.0) the same measures were 0.17 nM, 16.5 nM and 97.1.
